Experimental data taken from patent US12383545B1, “Treatment of migraine” (priority 2018, dated 2025).
“And” between values parts separate entries of the source, which are not always exact repeats. Equal values may be shown once.

Legend:
Format in all cases: in vivo, human
[1] = test system: ALT or AST; assay: Study B: postbaseline hepatic laboratory parameters (ALT or AST, potential Hy's Law); settings: atogepant 60 mg QD or standard of care, safety population
Text: Cases of alanine aminotransferase/aspartate aminotransferase (ALT/AST) levels ≥3 times the upper limit of normal were reported for 2.4% of participants (n=13/531) treated with atogepant and 3.2% for standard-of-care (n=6/190). No cases of potential Hy's Law were reported. Table 24 provides postbaseline hepatic laboratory parameter values of clinical interest for the safety population.

[2] = test system: participants with episodic migraine; assay: Study A: Patient Global Impression of Change (PGI-C) and satisfaction with study medication; settings: for PGI-C responders (“much better” or “very much better”), percentage / Satisfaction with study medication (“satisfied” or “extremely satisfied”), percentage: Week 12, mITT; for PGI-C response, OR (95% CI) vs placebo / Satisfaction with study medication, OR (95% CI) vs placebo: week 12
Text: Additional prespecified responder analyses included the Patient Global Impression of Change (PGI-C), defined as “much better” or “very much better” at week 12, and satisfaction with study medication, defined as “satisfied” or “extremely satisfied” at weeks 4, 8, and 12.

[3] = test system: participants with episodic migraine; assay: Study A: Activity Impairment in Migraine-Diary (AIM-D) PDA and PI domain scores; settings: for AIM-D Performance of Daily Activities domain score, LSMD vs. placebo (95% CI) / AIM-D Physical Impairment domain score, LSMD vs. placebo (95% CI) / AIM-D Performance of Daily Activities domain score, change from baseline, mean (SD) / AIM-D Physical Impairment domain score, LS mean change (SE): across 12 weeks; for AIM-D Performance of Daily Activities domain score, change from baseline, mean (SD) / AIM-D Physical Impairment domain score, LS mean change (SE) / AIM-D Performance of Daily Activities domain score, Month 1-3, mean (SD): mITT; for AIM-D Performance of Daily Activities domain score, Month 1-3, mean (SD): average across 12-week treatment period
Text: The Activity in Migraine Diary (AIM-D) evaluates the impact of migraine on the performance of daily activities and physical impairment using an electronic daily diary. In particular, the AIM-D is comprised of two domains that evaluate Performance of Daily Activities (PDA) and Physical Impairment (PI). Assessed items for the AIM-D PDA domain include household chores, errands, leisure activities at home, social or leisure activities outside the home, strenuous physical activities, concentration, and thinking clearly. Assessed items for the AIM-D PI Domain include walking, moving one's body, bending forward, and moving one's head. Response options for each item range from “not difficult at all” to “I could not do it at all” on a 6-point rating scale. The AIM-D domain scores are scaled from 0-100, with higher scores indicating greater impact of migraine, and reductions from baseline in scores indicate improvement. See Cala et al., The Activity Impairment in Migraine-Diary (AIM-D): A Novel Migraine-Specific Patient-Reported Outcome Measure to Assess Functioning Based on Activity Impairment in Episodic and Chronic Migraine Patients, MTIS2018-005 (Sep. 5, 2018).
A secondary endpoint evaluated the change from baseline in mean monthly performance of daily activities domain score of the AIM-D across the 12-week treatment period. Another secondary endpoint evaluated the change from baseline in mean monthly physical impairment domain score of the AIM-D across the 12-week treatment period. The Activity Impairment in Migraine-Diary (AIM-D) is an 11-item daily diary that is comprised of two domains that evaluate Performance of Daily Activities (PDA; 7 items) and Physical Impairment (PI; 4 items). See Cala et al., “The Activity Impairment in Migraine Diary (AIM-D): A novel migraine-specific patient-reported outcome measure to assess functioning based on activity impairment in episodic and chronic migraine patients”, Cephalalgia 2018; 38:1-115, which is incorporated by reference herein in its entirety. In particular, the AIM-D assesses the impact of migraine on the performance of daily activities and physical impairment using a 6-point rating scale ranging from “Not difficult at all,” “A little difficult,” “Somewhat difficult,” “Very Difficult,” “Extremely Difficult”, and “I could not do it at all.” Items assessed for the AIM-D PDA domain included household chores, errands, leisure activities at home, social or leisure activities outside the home, strenuous physical activities, concentration, and thinking clearly. Items assessed for the AIM-D PI Domain included walking, moving body, bending forward, and moving head. Raw domain scores are recalled to a 0 to 100 scale, where higher scores indicate greater impact of migraine, and reductions from baseline in scores indicate improvement. The AIM-D was collected daily via an electronic diary with the same set of questions administered in headache (HA) and non-headache (NHA) versions. Monthly domain scores are calculated by summing the non-missing daily domain scores (HA and NHA days combined) and dividing the number of non-missing daily scores. The secondary endpoints for AIM-D PDA and PI domain scores were evaluated as change from baseline in mean monthly PDA or PI domain scores of the AIM-D across the 12-week treatment period.

[4] = week 12, range across atogepant groups

Question: What does the source list for C[C@@H]1[C@H](c2c(F)ccc(F)c2F)C[C@H](NC(=O)c2cnc3c(c2)C[C@@]2(C3)C(=O)Nc3ncccc32)C(=O)N1CC(F)(F)F [atogepant]?
Answer: Potential Hy's Law (ALT or AST ≥ 3 × ULN and Bilirubin Total ≥ 2 × ULN and ALP < 2 × ULN), n/N1 (%) [1]: (0.0) %; ALT or AST ≥1 × ULN, n/N1 (%) ([1]; postbaseline): (21.1) %; ALT or AST ≥1.5 × ULN, n/N1 (%) ([1]; postbaseline): (8.7) %; ALT or AST ≥2 × ULN, n/N1 (%) ([1]; postbaseline): (4.9) %; ALT or AST ≥3 × ULN, n/N1 (%) ([1]; postbaseline): 2.4%; ALT or AST ≥5 × ULN, n/N1 (%) ([1]; postbaseline): (1.3) %; ALT or AST ≥10 × ULN, n/N1 (%) ([1]; postbaseline): (0.6) %; ALT or AST ≥20 × ULN, n/N1 (%) ([1]; postbaseline): (0.0) %; ALT or AST ≥3 × ULN, n/N1 (%) ([1]; postbaseline, listed as Atogepant): (2.4) %; PGI-C responders (“much better” or “very much better”), percentage ([2]; 10 mg): 72.1%; Satisfaction with study medication (“satisfied” or “extremely satisfied”), percentage ([2]; 10 mg): 77.7%; PGI-C response, OR (95% CI) vs placebo ([2]; 10 mg): 3.05; Satisfaction with study medication, OR (95% CI) vs placebo ([2]; 10 mg): 2.77; PGI-C responders (“much better” or “very much better”), percentage ([2]; 30 mg): 73.2%; Satisfaction with study medication (“satisfied” or “extremely satisfied”), percentage ([2]; 30 mg): 80.3%; PGI-C response, OR (95% CI) vs placebo ([2]; 30 mg): 3.33; Satisfaction with study medication, OR (95% CI) vs placebo ([2]; 30 mg): 3.44; PGI-C responders (“much better” or “very much better”), percentage ([2]; 60 mg): 76.1%; Satisfaction with study medication (“satisfied” or “extremely satisfied”), percentage ([2]; 60 mg): 82.6%; PGI-C response, OR (95% CI) vs placebo ([2]; 60 mg): 3.83; Satisfaction with study medication, OR (95% CI) vs placebo ([2]; 60 mg): 3.58; odds of achieving PGI-C response, times that of placebo ([2]; each atogepant group): ≥ 3 times; odds for being treatment satisfaction responders, times greater than placebo ([2]; week 12, atogepant groups): 2-4 times; proportion of patients satisfied with treatment [2, 4]: 78%-83%; proportion of patients who were PGI-C responders [2, 4]: 72%-76% and 70-80%; AIM-D Performance of Daily Activities domain score, LSMD vs. placebo (95% CI) ([3]; 10 mg QD): −1.19; AIM-D Physical Impairment domain score, LSMD vs. placebo (95% CI) ([3]; 10 mg QD): −1.08; AIM-D Performance of Daily Activities domain score, change from baseline, mean (SD) ([3]; 10 mg QD): −7.0; AIM-D Physical Impairment domain score, LS mean change (SE) ([3]; 10 mg QD): −5.11; AIM-D Performance of Daily Activities domain score, Month 1-3, mean (SD) ([3]; 10 mg QD): 8.6; AIM-D Performance of Daily Activities domain score, LSMD vs. placebo (95% CI) ([3]; 30 mg QD): −2.54; AIM-D Physical Impairment domain score, LSMD vs. placebo (95% CI) ([3]; 30 mg QD): −1.99; AIM-D Performance of Daily Activities domain score, change from baseline, mean (SD) ([3]; 30 mg QD): −8.9; AIM-D Physical Impairment domain score, LS mean change (SE) ([3]; 30 mg QD): −6.02; AIM-D Performance of Daily Activities domain score, Month 1-3, mean (SD) ([3]; 30 mg QD): 8.0; AIM-D Performance of Daily Activities domain score, LSMD vs. placebo (95% CI) ([3]; 60 mg QD): −3.32; AIM-D Physical Impairment domain score, LSMD vs. placebo (95% CI) ([3]; 60 mg QD): −2.46; AIM-D Performance of Daily Activities domain score, change from baseline, mean (SD) ([3]; 60 mg QD): −9.2; AIM-D Physical Impairment domain score, LS mean change (SE) ([3]; 60 mg QD): −6.49; AIM-D Performance of Daily Activities domain score, Month 1-3, mean (SD) ([3]; 60 mg QD): 6.6
